Data on five compounds can be found in patent publication US10774084B2, “Adenine derivatives and their use as UV-photoprotective agents” (UNIVERZITA PALACKEHO V OLOMOUCI, priority 2015, dated 2020).

The test system of assay [1] is skin fibroblasts BJ and keratinocytes HaCaT. The assay can be described thus: MTT in vitro cytotoxicity test for skin cells. The assay is classed as cell-based. The settings on record: Homo sapiens; 72 hour treatment; table does not say which cell line (BJ, HaCaT). Here is the method:
MTT assay is a standard test of toxicity based on photometric measurement of the ability of metabolically active cells to reduce MTT (3-(4,5-dimethylthiazol-2-yl)-2,5-diphenyltetrazolium bromide). Using the assay, the effects of 72 hour treatments with several concentrations of the compounds (sixfold dilution, maximal concentration=50 microM) on viability of skin fibroblasts BJ and keratinocytes HaCaT were evaluated. About 5,000 cells were seeded per well of a 96-well plate 24 hours before the treatment. DMSO vehiculum was used as a negative control. After 72 hour treatment, new medium with MTT (Sigma, M2128) was added to a final concentration of 0.5 mg/ml. After 3 hours, medium was removed and resulting formazan in the cells was dissolved in DMSO. The absorbance was measured at 570 nm (640 nm reference wavelength). The IC50 values were calculated from the dose-response curves. 6-furfurylaminopurine riboside was used as positive controls.

Assay [2] has as its system Triticum aestivum cv. Hereward leaf segments. The assay is described as follows: Senescence bioassay on detached wheat leaf segments (chlorophyll retention). The conditions noted are these: for maximum effective concentration: 96 h in the dark; for activity (%) [10^−4 mol · l^−1 BAP = 100%]: at maximum effective concentration. Here is the method:
Seeds of winter wheat, Triticum aestivum cv. Hereward, were washed under running water for 24 hours and then sown on vermiculite soaked with Knop's solution. They were placed in the growth chamber at 25° C. with a 16/8 h light period at […]. After 7 days, the first leaf was fully developed and the second leaf had started to grow. A tip section of the first leaf, approximately 35 mm long, was removed from 5 seedlings and trimmed slightly to a combined weight of 100 mg. The basal ends of the five leaf tips were placed in the wells of a microtiter polystyrene plate containing 150 μL of the tested derivative solution each. The entire plate was inserted into a plastic box lined with paper tissues soaked in distilled water to prevent leaf sections from drying out. After 96 h incubation in the dark at 25° C., the leaves were removed and chlorophyll extracted by heating at 80° C. for 10 min in 5 mL of 80% ethanol (v/v). The sample volume was then restored to 5 mL by the addition of 80% ethanol (v/v). The absorbance of the extract was recorded at 665 nm. In addition, chlorophyll extracts from fresh leaves and leaf tips incubated in deionised water were measured. The results are means of five replicates and the entire test was repeated twice. […] The compounds to be tested were dissolved in dimethylsulfoxide (DMSO) and the solution brought up to 10^−3 M with distilled water. […] The activity obtained for 10^−4 M of BAP was postulated as 100%. Kinetin was used as the second standard. Newly prepared compounds generally exceeded the efficiency of standard (BAP) by 10% of its activity (Tab. 5).

Assay [3] relates to Normal human dermal fibroblasts (NHDF). The assay is described as follows: In vitro UVA/UVB photoprotection test on NHDF (Example 9). The assay is classed as cell-based. An excerpt: Normal human dermal fibroblasts (NHDF) were used as an in vitro model. Cells were isolated from tissue specimens obtained from healthy patients undergoing plastic surgery at the Department of Plastic and Aesthetic Surgery (University Hospital Olomouc). The use of skin tissue was in accordance with the Ethics Committee of the University Hospital and Faculty of Medicine and Dentistry, Palacky University, Olomouc and all patients signed written informed consent. Fibroblasts were used between the 2nd and 4th passage. For all experiments the fibroblasts were seeded onto 96-well plates at a density of 0.8×10^5 cells/ml (0.2 ml per well) of cultivation medium (DMEM supplemented with fetal calf serum (10%, v/v), penicillin ([…]) and streptomycin (100 U/ml)). Test substances included compounds number 1, 3, 9, 15 and 20. Compounds were dissolved in DMSO and then diluted in serum free medium (DMEM supplemented with penicillin ([…]) and streptomycin (100 U/ml)). After 24 h incubation was cultivation medium changed to serum free medium containing test compound or DMSO (negative control). The final applied concentrations range was 3.9-31.3 μmol/ll. As a control serum free medium supplemented with appropriate concentration of DMSO (0.5%, v/v) was used. Rosmarinic acid was used as positive control. Each test compound was in parallel applied on two 96-well plates with NHDF. After 60 minutes incubation medium with test compound was discarded, cells were washed two-times with PBS and PBS supplemented with glucose (1 mg/ml) was applied. To study UVA photoprotection, a plate was exposed to a cytotoxic dose of UVA radiation (7.5 J/cm^2) using a solar simulator SOL 500 (Dr. Hoenle Technology, Germany) equipped with a H1 filter transmitting wavelengths of 320-400 nm. To study UVB photoprotection, a plate was exposed to a cytotoxic dose of UVB radiation (150 mJ/cm^2) using the solar simulator equipped with a H2 filter transmitting wavelengths of 295-320 nm. Intensity of UVA or UVB radiation was evaluated before each irradiation by UVA- or UVB-meter. Control (non-irradiated) plates were for the period of irradiation incubated in dark. After UVA or UVB exposure PBS with glucose was discarded and serum free medium was applied. After 24 hours (37° C., 5% CO2) cell damage was evaluated by neutral red (NR) incorporation into viable cells. Medium was discarded and NR solution (0.03% w/v, PBS) was applied. After 60 minutes NR solution was discarded, cells were fixed with a mixture of formaldehyde (0.5%, v/v) and CaCl2 (1%, m/v) in ratio 1:1 and then NR was dissolved in methanol (50%, v/v) with acetic acid (1%, v/v). After 5 minutes of intensive shaking absorbance was measured at 540 nm. Experiments were performed in four independent repetitions with use of cells from four donors to minimize individual sensitivity of donor cells. Photoprotective effect was evaluated by comparison of experimental data (absorbance) of test compounds with a positive control and a negative control (according to the following equation:
[formula] • As . . . absorbance of sample (cells pre-incubated with test compounds in serum free medium and irradiated) • Anc . . . absorbance of negative control (cells pre-incubated with s DMSO in serum free medium and non-irradiated=incubated in dark) • Apc . . . absorbance of positive control (cells pre-incubated with s DMSO in serum free medium and irradiated)

A further assay deals with HaCaT. The assay can be described thus: In vitro UVA/UVB photoprotection test on HaCaT. The assay is classed as cell-based, human. Here is the method:
Spontaneously Immortalized Aneuploid Human Keratinocyte Cell Line (HaCaT) was bought from CLS (Eppeheim, Germany) and used as an in vitro model. For all experiments the keratinocytes were seeded onto 96-well plates at a density of 1.6×10^5 cells/ml (0.2 ml per well) of growth medium (DMEM supplemented with fetal bovine serum (10%), penicillin ([…]) and streptomycin (100 U/ml)).
Test substances included compounds number 3, 9, 15 and 20. Compounds were dissolved in DMSO and then diluted in serum free medium (DMEM supplemented penicillin ([…]) and streptomycin (100 U/ml)). After 24 h incubation was growth medium changed to serum free medium containing test compounds. The final applied concentration range was 3.9-31.25 μmol/l. As a control, serum free medium supplemented with appropriate concentration of DMSO (0.5%, v/v) was used. Rosmarinic acid was used as positive control. After 60 minutes incubation with test compounds medium was discarded, cells were washed two-times with PBS and PBS supplemented with glucose (1 mg/ml) was applied. To study UVA photoprotection, a plate was exposed to a cytotoxic dose of UVA radiation (10 J/cm2) using a solar simulator SOL 500 (Dr. Hoenle Technology, Germany) equipped with a H1 filter transmitting wavelengths of 320-400 nm. To study UVB photoprotection, a plate was exposed to a cytotoxic dose of UVB radiation (150 mJ/cm2) using the solar simulator equipped with a H2 filter transmitting wavelengths of 295-320 nm. Intensity of UVA or UVB radiation was evaluated before each irradiation by UVA- or UVB-meter. Control (non-irradiated) plates were for the period of irradiation incubated in dark. After UVA or UVB exposure PBS with glucose was discarded and serum free medium was applied. After 24 hours (37° C., 5% CO2) cell damage was evaluated by neutral red (NR) incorporation into viable cells. Medium was discarded and NR solution (0.03% w/v, PBS) was applied. After 60 minutes NR solution was discarded, cells were fixed with a mixture of formaldehyde (0.5%, v/v) and CaCl2 (1%, m/v) in ratio 1:1 and then NR was dissolved in methanol (50%, v/v) with acetic acid (1%, v/v).
After 5 minutes of intensive shaking absorbance was measured at 540 nm. Experiments were performed in four independent repetitions with use of […] to minimize individual sensitivity of donor cells. Photoprotective effect was evaluated by comparison of experimental data (absorbance) of test compounds with a positive control and a negative control (according to the following equation: […]
As . . . absorbance of sample (cells pre-incubated with test compounds in serum free medium and irradiated)
Anc . . . absorbance of negative control (cells pre-incubated with s DMSO in serum free medium and non-irradiated=incubated in dark)
Apc . . . absorbance of positive control (cells pre-incubated with s DMSO in serum free medium and irradiated)

Each structure is given as a SMILES string. Bounds are passed on as bounds.

Turning to `OC[C@H]1OC(n2cnc3c(NCc4ccco4)ncnc32)[C@H](O)[C@@H]1O` (some centres unmarked) [6-furfurylamino-9-ribosylpurine, reference compound], the concentration for half-maximal inhibition (IC50) in assay [1] is no more than 3000 nM.

In the case of `c1ccc(CNc2ncnc3nc[nH]c23)cc1` [BAP, 6-benzylaminopurine, reference compound], in assay [2], the maximum effective concentration is given as 10^−4 mol · l^−1 and the “activity (%) [10^−4 mol · l^−1 BAP = 100%]” value (“activity (%)” for short) was determined as 100 ± 1%.

For the compound `Cc1ccsc1CNc1ncnc2c1ncn2C1CCCO1` (centres unmarked) [Compound 10, 6-(3-methylthiophen-2-ylmethylamino)-9-(tetrahydrofuran-2-yl)purine], in assay [2], the maximum effective concentration was 10^−4 mol · l^−1 and the “activity (%)” value came to 110 ± 7%.

Regarding `O=C(/C=C/c1ccc(O)c(O)c1)O[C@H](Cc1ccc(O)c(O)c1)C(=O)O` [RA, rosmarinic acid, reference compound], the “Protection (%)” value in assay [3] (UVA 7.5 J/cm^2, 3.9 μmol/l) is reported as 6.1%; in assay [3] (UVA 7.5 J/cm^2, 7.8 μmol/l), 14.7%; in assay [3] (UVA 7.5 J/cm^2, 15.6 μmol/l), 17.0%; in assay [3] (UVA 7.5 J/cm^2, 31.3 μmol/l), 19.3%; in assay [3] (UVB 150 mJ/cm^2, 3.9 μmol/l), 36.8%; in assay [3] (UVB 150 mJ/cm^2, 7.8 μmol/l), 50.9%. The “Protection (%)” value in assay [3] (UVB 150 mJ/cm^2, 15.6 μmol/l) is 52.9%; in assay [3] (UVB 150 mJ/cm^2, 31.3 μmol/l), 67.7%; with HaCaT (Table 17: UVA-induced damage (10 J/cm2), 3.9 μmol/l) it was 23.6%; with HaCaT (Table 17: UVA-induced damage (10 J/cm2), 7.8 μmol/l), 42.3%; in the assay with HaCaT (Table 17: UVA-induced damage (10 J/cm2), 15.6 μmol/l) it was 36.2%; in the assay on HaCaT (Table 17: UVA-induced damage (10 J/cm2), 31.3 μmol/l) it was 44.0%. For the same compound, the “Protection (%)” value amounted to 22% in the assay with HaCaT (Table 18: titled UVA-induced damage, 3.9 μmol/l); 48.5% in the assay on HaCaT (Table 18: titled UVA-induced damage, 7.8 μmol/l); 55.7% in the assay with HaCaT (Table 18: titled UVA-induced damage, 15.6 μmol/l); 54.3% with HaCaT (Table 18: titled UVA-induced damage, 31.3 μmol/l).

Regarding `c1coc(CNc2ncnc3nc[nH]c23)c1` [kinetin, 6-furfurylaminopurine, reference compound], in assay [2], the maximum effective concentration is on record as 10^−4 mol · l^−1 and the “activity (%)” value turned out to be 98 ± 4%.
